≈ marks a conversion by molar mass, not a printed value.
Assays:
Enterobacter cloacae 963 = experiment: MIC, twofold agar dilution method (standard laboratory strain); assay type: cell-based; conditions: Enterobacter cloacae 963, Gram -; 10^6 cfu/ml; 18 hrs at 37 °C
Procedure: (§1) Overnight cultures in Mueller-Hinton broth were suspended by buffered saline gelatin. One loopful of the bacterial suspension (10⁶ or 10⁸ colony-forming units/ml) was incubated onto the plates containing test compounds. The plates were incubated for 18 hrs at 37 °C. The MIC was defined by the lowest concentration of the drug that inhibited visible growth of bacteria.

[1] = system: Escherichia coli NIHJ JC-2; experiment: as above; assay type: cell-based; conditions: NIHJJC2; Escherichia coli NIHJ JC-2, Gram -; 10^6 cfu/ml; 18 hrs at 37 °C
Procedure: as §1

[2] = system: Pseudomonas aeruginosa IFO 3445; experiment: as above; assay type: cell-based; conditions: IFO3445; Pseudomonas aeruginosa IFO 3445, Gram -; 10^6 cfu/ml; 18 hrs at 37 °C
Procedure: as §1

[3] = system: Serratia marcescens IAM 1184; experiment: as above; assay type: cell-based; conditions: IAM1184; Serratia marcescens IAM 1184, Gram -; 10^6 cfu/ml; 18 hrs at 37 °C
Procedure: as §1

[4] = system: Staphylococuss aureus FDA 209PJC-1; experiment: as above; assay type: cell-based; conditions: Staphylococuss aureus FDA 209PJC-1, Gram +; 10^6 cfu/ml; 18 hrs at 37 °C
Procedure: as §1

[5] = system: Klebsiella pneumoniae PCI-602; experiment: as above; assay type: cell-based; conditions: PCI602; Klebsiella pneumoniae PCI-602, Gram -; 10^6 cfu/ml; 18 hrs at 37 °C; read-out: MIC
Procedure: as §1, with “Minimum inhibitory concentrations (MIC) of test compounds were determined by the twofold agar dilution method (Chemotherapy, 29(1), 76(1981)). Overnight” for “Overnight”

[6] = system: Acinetobacter calcoaceticus HNR 904; experiment: MIC, twofold agar dilution method (clinically isolated strain); assay type: cell-based; conditions: HNR904; Acinetobacter calcoaceticus HNR 904, Gram -; 10^6 cfu/ml; 18 hrs at 37 °C
Procedure: as §1

[7] = system: Acinetobacter calcoaceticus HNR 916; experiment: as above; assay type: cell-based; conditions: HNR916; Acinetobacter calcoaceticus HNR 916, Gram -; 10^6 cfu/ml; 18 hrs at 37 °C
Procedure: as §1

[8] = system: Acinetobacter calcoaceticus HNR 939; experiment: as above; assay type: cell-based; conditions: HNR939; Acinetobacter calcoaceticus HNR 939, Gram -; 10^6 cfu/ml; 18 hrs at 37 °C
Procedure: as §1

[9] = system: Enterobacter cloacae HNR 1939; experiment: as above; assay type: cell-based; conditions: HNR1939; Enterobacter cloacae HNR 1939, Gram -; 10^6 cfu/ml; 18 hrs at 37 °C
Procedure: as §1

[10] = system: Enterobacter cloacae HNR 1941; experiment: as above; assay type: cell-based; conditions: HNR1941; Enterobacter cloacae HNR 1941, Gram -; 10^6 cfu/ml; 18 hrs at 37 °C
Procedure: as §1

[11] = system: Enterobacter cloacae HNR 1946; experiment: as above; assay type: cell-based; conditions: HNR1946; Enterobacter cloacae HNR 1946, Gram -; 10^6 cfu/ml; 18 hrs at 37 °C
Procedure: as §1

[12] = system: Enterococcus faecalis HPC 948; experiment: as above; assay type: cell-based; conditions: HPC948; Enterococcus faecalis HPC 948, Gram +; 10^6 cfu/ml; 18 hrs at 37 °C
Procedure: as §1

[13] = system: Enterococcus faecalis HPC 975; experiment: as above; assay type: cell-based; conditions: HPC975; Enterococcus faecalis HPC 975, Gram +; 10^6 cfu/ml; 18 hrs at 37 °C
Procedure: as §1

[14] = system: Enterococcus faecalis HPC 984; experiment: as above; assay type: cell-based; conditions: HPC984; Enterococcus faecalis HPC 984, Gram +; 10^6 cfu/ml; 18 hrs at 37 °C
Procedure: as §1

[15] = system: Klebsiella pneumoniae HNR 828; experiment: as above; assay type: cell-based; conditions: HNR828; Klebsiella pneumoniae HNR 828, Gram -; 10^6 cfu/ml; 18 hrs at 37 °C
Procedure: as §1

[16] = system: Klebsiella pneumoniae HNR 858; experiment: as above; assay type: cell-based; conditions: HNR858; Klebsiella pneumoniae HNR 858, Gram -; 10^6 cfu/ml; 18 hrs at 37 °C
Procedure: as §1

[17] = system: Klebsiella pneumoniae HNR 869; experiment: as above; assay type: cell-based; conditions: HNR869; Klebsiella pneumoniae HNR 869, Gram -; 10^6 cfu/ml; 18 hrs at 37 °C
Procedure: as §1

[18] = system: Pseudomonas aeruginosa HNR 1472; experiment: as above; assay type: cell-based; conditions: HNR1472; Pseudomonas aeruginosa HNR 1472, Gram -; 10^6 cfu/ml; 18 hrs at 37 °C
Procedure: as §1

[19] = system: Pseudomonas aeruginosa HNR 1489; experiment: as above; assay type: cell-based; conditions: HNR1489; Pseudomonas aeruginosa HNR 1489, Gram -; 10^6 cfu/ml; 18 hrs at 37 °C
Procedure: as §1

[20] = system: Pseudomonas aeruginosa HNR 1537; experiment: as above; assay type: cell-based; conditions: HNR1537; Pseudomonas aeruginosa HNR 1537, Gram -; 10^6 cfu/ml; 18 hrs at 37 °C
Procedure: as §1

[21] = system: Serratia marcescens HNR 1544; experiment: as above; assay type: cell-based; conditions: HNR1544; Serratia marcescens HNR 1544, Gram -; 10^6 cfu/ml; 18 hrs at 37 °C
Procedure: as §1

[22] = system: Serratia marcescens HNR 1767; experiment: as above; assay type: cell-based; conditions: HNR1767; Serratia marcescens HNR 1767, Gram -; 10^6 cfu/ml; 18 hrs at 37 °C
Procedure: as §1

[23] = system: Serratia marcescens HNR 1792; experiment: as above; assay type: cell-based; conditions: HNR1792; Serratia marcescens HNR 1792, Gram -; 10^6 cfu/ml; 18 hrs at 37 °C
Procedure: as §1

[24] = system: Staphylococcuss aureus HPC 292; experiment: as above; assay type: cell-based; conditions: Staphylococcuss aureus HPC 292, Gram +; 10^6 cfu/ml; 18 hrs at 37 °C
Procedure: as §1

[25] = system: Staphylococcuss aureus HPC 308; experiment: as above; assay type: cell-based; conditions: Staphylococcuss aureus HPC 308, Gram +; 10^6 cfu/ml; 18 hrs at 37 °C
Procedure: as §1

[26] = system: Staphylococcuss aureus HPC 527; experiment: as above; assay type: cell-based; conditions: Staphylococcuss aureus HPC 527, Gram +; 10^6 cfu/ml; 18 hrs at 37 °C
Procedure: as §1

Male mice of ddY strain = experiment: Convulsion inducing activity in combination with fenbufen; conditions: 100 mg/kg (i.p.), thirty minutes after fenbufen 100 mg/kg orally
Procedure: Male mice of ddY strain, 5 weeks old, were used. Fenbufen suspended in 0.5 % carboxymethylcellulose was administered orally at a dose of 100 mg/kg. After thirty minutes, test compounds suspended in 0.5 % carboxymethylcellulose were injected intraperitoneally (i.p.) at a dose of 100 mg/kg or 300 mg/kg.

SMILES	MIC (Enterobacter cloacae 963) [µg/mL]	MIC [1] [µg/mL]	MIC [2] [µg/mL]	MIC [3] [µg/mL]	MIC [4] [µg/mL]	MIC [5] [µg/mL]	MIC [6] [µg/mL]	MIC [7] [µg/mL]	MIC [8] [µg/mL]	MIC [9] [µg/mL]	MIC [10] [µg/mL]	MIC [11] [µg/mL]	MIC [12] [µg/mL]	MIC [13] [µg/mL]	MIC [14] [µg/mL]	MIC [15] [µg/mL]	MIC [16] [µg/mL]	MIC [17] [µg/mL]	MIC [18] [µg/mL]	MIC [19] [µg/mL]	further results
NC1CCN(c2c(F)cc3c(=O)c(C(=O)O)c4n(c3c2F)CS4)C1 (stereo not shown) [Ref. Drug E, 7-(3-amino-1-pyrrolidinyl)-6,8-difluoro-4-oxo-1H,4H-[1,3]thiazeto[3,2-a]quinoline-3-carboxylic acid]	0.1 (≈ 0.283 µM)	0.1 (≈ 0.283 µM)	0.2 (≈ 0.566 µM)	0.2 (≈ 0.566 µM)	0.1 (≈ 0.283 µM)	0.05 (≈ 0.142 µM)	> 100	0.39 (≈ 1.1 µM)	> 100	0.78 (≈ 2.21 µM)	> 100	1.56 (≈ 4.41 µM)	50 (≈ 142 µM)	> 100	0.78 (≈ 2.21 µM)	50 (≈ 142 µM)	0.78 (≈ 2.21 µM)	50 (≈ 142 µM)	> 100	0.39 (≈ 1.1 µM)	MIC [20]: > 100 µg/mL; MIC [21]: 0.1 µg/mL (≈ 0.283 µM); MIC [22]: > 100 µg/mL; MIC [23]: > 100 µg/mL; MIC [24]: > 100 µg/mL; MIC [25]: 100 µg/mL (≈ 283 µM); MIC [26]: 0.2 µg/mL (≈ 0.566 µM)
CC1Sc2c(C(=O)O)c(=O)c3cc(F)c(N4CCNCC4)cc3n21 (stereo not shown) [Ref. Drug B, 6-fluoro-1-methyl-4-oxo-7-(1-piperazinyl)-1H,4H-[1,3]thiazeto[3,2-a]quinoline-3-carboxylic acid]	0.05 (≈ 0.143 µM)	0.025 (≈ 0.0716 µM)	0.2 (≈ 0.572 µM)	0.05 (≈ 0.143 µM)	0.1 (≈ 0.286 µM)	0.012 (≈ 0.0343 µM)	> 100	0.78 (≈ 2.23 µM)	6.25 (≈ 17.9 µM)	0.2 (≈ 0.572 µM)	12.5 (≈ 35.8 µM)	0.39 (≈ 1.12 µM)	6.25 (≈ 17.9 µM)	50 (≈ 143 µM)	0.78 (≈ 2.23 µM)	1.56 (≈ 4.46 µM)	0.2 (≈ 0.572 µM)	0.78 (≈ 2.23 µM)	6.25 (≈ 17.9 µM)	0.1 (≈ 0.286 µM)	MIC [20]: 6.25 µg/mL (≈ 17.9 µM); MIC [21]: 0.05 µg/mL (≈ 0.143 µM); MIC [22]: 50 µg/mL (≈ 143 µM); MIC [23]: 6.25 µg/mL (≈ 17.9 µM); MIC [24]: 50 µg/mL (≈ 143 µM); MIC [25]: 25 µg/mL (≈ 71.6 µM); MIC [26]: 0.39 µg/mL (≈ 1.12 µM)
CC1Sc2c(C(=O)O)c(=O)c3cc(F)c(N4CCNCC4)c(F)c3n21 (stereo not shown) [Ref. Drug C, 6,8-difluoro-1-methyl-4-oxo-7-(1-piperazinyl)-1H,4H-[1,3]thiazeto[3,2-a]quinoline-3-carboxylic acid]	0.05 (≈ 0.136 µM)	0.05 (≈ 0.136 µM)	0.2 (≈ 0.544 µM)	0.1 (≈ 0.272 µM)	0.1 (≈ 0.272 µM)	0.025 (≈ 0.068 µM)	25 (≈ 68 µM)	0.2 (≈ 0.544 µM)	3.13 (≈ 8.52 µM)	0.39 (≈ 1.06 µM)	6.25 (≈ 17 µM)	0.39 (≈ 1.06 µM)	3.13 (≈ 8.52 µM)	50 (≈ 136 µM)	0.39 (≈ 1.06 µM)	3.13 (≈ 8.52 µM)	0.39 (≈ 1.06 µM)	0.78 (≈ 2.12 µM)	6.25 (≈ 17 µM)	0.2 (≈ 0.544 µM)	MIC [20]: 12.5 µg/mL (≈ 34 µM); MIC [21]: 0.1 µg/mL (≈ 0.272 µM); MIC [22]: 12.5 µg/mL (≈ 34 µM); MIC [23]: 3.13 µg/mL (≈ 8.52 µM); MIC [24]: 25 µg/mL (≈ 68 µM); MIC [25]: 6.25 µg/mL (≈ 17 µM); MIC [26]: 0.2 µg/mL (≈ 0.544 µM); Number of convulsion induced / Number of animals (Male mice of ddY strain): 6 / 6
